Values of other authors, collected in US20230136789A1, “POLYMER IMPLANTS” (Foundry Therapeutics, Inc., priority 2020, published 2023).

pKa: about 8.0
SMILES: CCCCN1CCCCC1C(=O)Nc1c(C)cccc1C (stereo not shown) [bupivacaine]
